Reference: patent publication US6500842B1, “8-hydroxy-7-substituted quinolines as anti-viral agents” (Pharmacia & Upjohn Company, priority 1996, dated 2002)
“And” between values parts separate entries of the source, which are not always exact repeats. Equal entries are not always repeated.

molecular target: T1, HCMV polymerase (Human cytomegalovirus, UniProt P08546); test: HCMV polymerase assay (scintillation proximity assay); assay type: biochemical; details: Conc 1.00e−004 M; Table 2
T1 construct: made in house; host or cells: recombinant baculovirus-infected SF-9 cells
T1 sequence (P08546 whole entry): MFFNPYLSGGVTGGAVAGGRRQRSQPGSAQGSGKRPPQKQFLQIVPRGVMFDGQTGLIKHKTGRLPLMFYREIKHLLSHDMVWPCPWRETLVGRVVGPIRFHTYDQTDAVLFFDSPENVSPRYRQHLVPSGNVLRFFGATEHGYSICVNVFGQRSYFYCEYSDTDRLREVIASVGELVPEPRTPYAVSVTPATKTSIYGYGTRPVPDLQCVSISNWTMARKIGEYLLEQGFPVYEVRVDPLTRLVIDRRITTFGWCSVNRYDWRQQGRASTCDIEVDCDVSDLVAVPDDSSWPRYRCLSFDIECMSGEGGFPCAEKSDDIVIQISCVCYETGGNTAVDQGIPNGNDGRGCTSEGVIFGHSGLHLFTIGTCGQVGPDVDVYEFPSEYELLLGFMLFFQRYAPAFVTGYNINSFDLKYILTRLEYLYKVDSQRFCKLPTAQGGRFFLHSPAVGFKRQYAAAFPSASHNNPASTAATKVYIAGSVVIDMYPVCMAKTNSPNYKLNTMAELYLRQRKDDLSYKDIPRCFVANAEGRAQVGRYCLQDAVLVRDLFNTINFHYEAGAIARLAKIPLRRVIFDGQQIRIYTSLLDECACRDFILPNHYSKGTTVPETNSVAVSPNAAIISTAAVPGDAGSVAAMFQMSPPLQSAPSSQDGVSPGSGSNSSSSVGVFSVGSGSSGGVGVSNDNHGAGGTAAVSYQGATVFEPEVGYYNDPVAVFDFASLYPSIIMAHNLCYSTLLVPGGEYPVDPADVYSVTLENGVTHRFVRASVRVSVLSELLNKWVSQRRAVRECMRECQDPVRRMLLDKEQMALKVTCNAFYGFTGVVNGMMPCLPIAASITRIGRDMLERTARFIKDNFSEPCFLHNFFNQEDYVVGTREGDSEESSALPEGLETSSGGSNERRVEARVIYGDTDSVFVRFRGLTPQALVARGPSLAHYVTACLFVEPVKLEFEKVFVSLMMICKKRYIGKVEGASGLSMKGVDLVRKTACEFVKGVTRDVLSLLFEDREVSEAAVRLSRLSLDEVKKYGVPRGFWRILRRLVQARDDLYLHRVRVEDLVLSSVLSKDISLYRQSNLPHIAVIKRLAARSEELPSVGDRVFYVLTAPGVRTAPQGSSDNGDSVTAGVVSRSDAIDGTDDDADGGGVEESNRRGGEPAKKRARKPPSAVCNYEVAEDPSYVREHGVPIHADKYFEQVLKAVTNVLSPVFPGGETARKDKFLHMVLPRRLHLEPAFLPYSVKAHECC
Protocol: The HCMV polymerase assay is performed using a scintillation proximity assay (SPA) as described in several references, such as N. D. Cook, et al., Pharmaceutical Manufacturing International, pages 49-53 (1992); K. Takeuchi, Laboratory Practice, September issue (1992); U.S. Pat. No. 4,568,649 (1986); which are incorporated by reference herein. Reactions are performed in 96-well plates. The assay is conducted in 100 μl volume with 5.4 mM HEPES (pH 7.5), 11.7 mM KCl, 4.5 mM MgCl2, 0.36 mg/ml BSA, and 90 nM ^3H-dTTP. Assays are run with and without CHAPS, (3-[(3-Cholamidopropyl)-dimethylammonio]-1-propane-sulfonate) at a final concentration of 2 mM. HCMV is diluted in enzyme dilution buffer containing 50% glycerol, 250 mM NaCl, 10 mM HEPES (pH 7.5), 100 pg/ml BSA, and 0.01% sodium azide. The HCMV polymerase, which is expressed in recombinant baculovirus-infected SF-9 cells and purified according to literature procedures, is added at 10% (or 10 μl) of the final reaction volume, i.e., 100 μl. Compounds are diluted in 50% DMSO and 10 μl are added to each well. Control wells contain an equivalent concentration of DMSO. Unless noted otherwise, reactions are initiated via the addition of 6 nM biotinylated poly(dA)-oligo(dT) template/primer to reaction mixtures containing the enzyme, substrate, and compounds of interest. Plates are incubated in a 25° C. of 37° C. H2O bath and terminated via the addition of 40 μl/reaction of 0.5 M EDTA (pH 8) per well. Reactions are terminated within the time-frame during which substrate incorporation is linear and varied depending upon the enzyme and conditions used, i.e., 30 min. for HCMV polymerase. Ten μl of streptavidin-SPA beads (20 mg/ml in PBS/10% glycerol) are added following termination of the reaction. Plates are incubated 10 min. at 37° C., then equilibrated to room temperature, and counted on a Packard Topcount. Linear regressions are performed and IC50's are calculated using computer software. Results of the testing of compounds of the present invention in this assay are shown in Tables 1, 2, 5, 9, 10, 11, 13 (except for the last compound which was tested under modified conditions) and 14 below.

Compound	% Inhib
Cc1ccc2c(Cl)cc(S(=O)(=O)NCc3cccc4ccccc34)c(O)c2n1 [Example 31, 5-Chloro-8-hydroxy-2-methyl-N-(1-naphthalenylmethyl)-7-quinolinesulfonamide]	97.3%

same assay, conditions: Conc 1.00e−005 M; Table 2

Compound	% Inhib
Cc1ccc2c(Cl)cc(S(=O)(=O)NCc3cccc4ccccc34)c(O)c2n1 [Example 31, 5-Chloro-8-hydroxy-2-methyl-N-(1-naphthalenylmethyl)-7-quinolinesulfonamide]	88.2%

same assay, conditions: Conc 1.25e−006 M; Table 2

Compound	% Inhib
Cc1ccc2c(Cl)cc(S(=O)(=O)NCc3cccc4ccccc34)c(O)c2n1 [Example 31, 5-Chloro-8-hydroxy-2-methyl-N-(1-naphthalenylmethyl)-7-quinolinesulfonamide]	22.7%

same assay, conditions: Conc 1.30e−005 M; Table 2

Compound	% Inhib
Cc1ccc2c(Cl)cc(S(=O)(=O)NCc3cccc4ccccc34)c(O)c2n1 [Example 31, 5-Chloro-8-hydroxy-2-methyl-N-(1-naphthalenylmethyl)-7-quinolinesulfonamide]	97.3%

same assay, conditions: Conc 2.50e−005 M; Table 2

Compound	% Inhib
Cc1ccc2c(Cl)cc(S(=O)(=O)NCc3cccc4ccccc34)c(O)c2n1 [Example 31, 5-Chloro-8-hydroxy-2-methyl-N-(1-naphthalenylmethyl)-7-quinolinesulfonamide]	97.8%

same assay, conditions: Conc 2.50e−006 M; Table 2

Compound	% Inhib
Cc1ccc2c(Cl)cc(S(=O)(=O)NCc3cccc4ccccc34)c(O)c2n1 [Example 31, 5-Chloro-8-hydroxy-2-methyl-N-(1-naphthalenylmethyl)-7-quinolinesulfonamide]	38.5%

same assay, conditions: Conc 3.13e−006 M; Table 2

Compound	% Inhib
Cc1ccc2c(Cl)cc(S(=O)(=O)NCc3cccc4ccccc34)c(O)c2n1 [Example 31, 5-Chloro-8-hydroxy-2-methyl-N-(1-naphthalenylmethyl)-7-quinolinesulfonamide]	82.9%

same assay, conditions: Conc 3.13e−007 M; Table 2

Compound	% Inhib
Cc1ccc2c(Cl)cc(S(=O)(=O)NCc3cccc4ccccc34)c(O)c2n1 [Example 31, 5-Chloro-8-hydroxy-2-methyl-N-(1-naphthalenylmethyl)-7-quinolinesulfonamide]	−7.9%

same assay, conditions: Conc 5.00e−005 M; Table 2

Compound	% Inhib
Cc1ccc2c(Cl)cc(S(=O)(=O)NCc3cccc4ccccc34)c(O)c2n1 [Example 31, 5-Chloro-8-hydroxy-2-methyl-N-(1-naphthalenylmethyl)-7-quinolinesulfonamide]	97.8%

same assay, conditions: Conc 5.00e−006 M; Table 2

Compound	% Inhib
Cc1ccc2c(Cl)cc(S(=O)(=O)NCc3cccc4ccccc34)c(O)c2n1 [Example 31, 5-Chloro-8-hydroxy-2-methyl-N-(1-naphthalenylmethyl)-7-quinolinesulfonamide]	55%

same assay, conditions: Conc 6.25e−006 M; Table 2

Compound	% Inhib
Cc1ccc2c(Cl)cc(S(=O)(=O)NCc3cccc4ccccc34)c(O)c2n1 [Example 31, 5-Chloro-8-hydroxy-2-methyl-N-(1-naphthalenylmethyl)-7-quinolinesulfonamide]	95%

same assay, conditions: Conc 6.25e−007 M; Table 2

Compound	% Inhib
Cc1ccc2c(Cl)cc(S(=O)(=O)NCc3cccc4ccccc34)c(O)c2n1 [Example 31, 5-Chloro-8-hydroxy-2-methyl-N-(1-naphthalenylmethyl)-7-quinolinesulfonamide]	20%

same assay, conditions: IC50 uM, Table 10; CMV pol Assay

Compound	IC50
O=C(Nc1ccc2c(C(F)(F)F)cc(=O)oc2c1)c1ccc2cccnc2c1O	9.5 µM

same assay, conditions: Table 9; read-out: CMV pol Assay- IC50

Compound	IC50
CC(NC(=O)c1ccc2cccnc2c1O)c1ccccc1 (stereo not shown)	22.2 µM
O=C(NC1CCCc2ccccc21)c1ccc2cccnc2c1O (stereo not shown)	7.6 µM
O=C(NCCSCc1c(F)cccc1Cl)c1ccc2cccnc2c1O	9.6 µM
CCCCCC(C)NC(=O)c1ccc2cccnc2c1O (stereo not shown)	7.9 µM
CC1(C)C2CCC(CNC(=O)c3ccc4cccnc4c3O)C1C2 (stereo not shown)	1.5 µM
CCCCCCCCNC(=O)c1ccc2cccnc2c1O	5.6 µM
O=C(NCCSc1cc(C(F)(F)F)nc2ccccc12)c1ccc2cccnc2c1O	12.6 µM
O=C(NCc1cccc(Cl)c1)c1ccc2cccnc2c1O	8.7 µM
O=C(NCCSCc1c(Cl)cccc1Cl)c1ccc2cccnc2c1O	8.4 µM
CCCCC(CC)CNC(=O)c1ccc2cccnc2c1O (stereo not shown)	3.2 µM
CC(C)(C)OC(=O)[C@H](Cc1ccc(O)cc1)NC(=O)c1ccc2cccnc2c1O	8.1 µM
COC(=O)[C@H](Cc1ccc(OCc2ccccc2)cc1)NC(=O)c1ccc2cccnc2c1O	4.9 µM
CC(C)(C)C1CCC(NC(=O)c2ccc3cccnc3c2O)CC1 (stereo not shown)	2.3 µM
O=C(NCCc1ccc(Cl)cc1)c1ccc2cccnc2c1O	6.7 µM
O=C(NCc1c(Cl)cccc1Oc1ccccc1)c1ccc2cccnc2c1O	3.1 µM
CC(CNC(=O)c1ccc2cccnc2c1O)c1ccccc1 (stereo not shown)	14.8 µM

Compound	IC50
C[C@@H](NC(=O)c1ccc2cccnc2c1O)c1ccc(Br)cc1	4.6 µM
CC1CCCCC1NC(=O)c1ccc2cccnc2c1O (stereo not shown)	< 3.1 µM and > 10 µM
Cc1cccc(CNC(=O)c2ccc3cccnc3c2O)c1	22.6 µM
O=C(N[C@H](c1ccccc1)[C@@H](O)c1ccccc1)c1ccc2cccnc2c1O	2.9 µM and 6.4 µM
O=C(NCc1ccccc1Cl)c1ccc2cccnc2c1O	19.7 µM
CCCCCCCCCCNC(=O)c1ccc2cccnc2c1O	7.1 µM
CC1CCCC(NC(=O)c2ccc3cccnc3c2O)C1C (stereo not shown)	8.4 µM
O=C(NCc1ccccc1Sc1ccccc1CO)c1ccc2cccnc2c1O	9.4 µM
O=C(NCc1c(F)cccc1F)c1ccc2cccnc2c1O	7.1 µM
O=C(N[C@@H](c1ccccc1)[C@H](O)c1ccccc1)c1ccc2cccnc2c1O	2.2 µM and 4.7 µM
O=C(NCCc1ccc(Cl)cc1Cl)c1ccc2cccnc2c1O	9 µM
O=C(NCc1cc(F)ccc1F)c1ccc2cccnc2c1O	22.3 µM
O=C(NCCc1c[nH]c2ccccc12)c1ccc2cccnc2c1O	11.1 µM
O=C(NCC(O)c1ccccc1)c1ccc2cccnc2c1O (stereo not shown)	7.8 µM
Cc1ccc(CCNC(=O)c2ccc3cccnc3c2O)cc1	16.8 µM

same assay, conditions: Table 10; CMV pol Assay; read-out: IC50

Compound	IC50
O=C(Nc1ccc2c(c1)OCO2)c1ccc2cccnc2c1O	16.4 µM
Cc1c(NC(=O)c2ccc3cccnc3c2O)cccc1[N+](=O)[O-]	5.5 µM
Cc1cccc(NC(=O)c2ccc3cccnc3c2O)c1C	8.6 µM
O=C(Nc1cccc(I)c1)c1ccc2cccnc2c1O	5.9 µM
Cc1cccc(NC(=O)c2ccc3cccnc3c2O)c1 [drawing 284]	7 µM
O=C(Nc1cc(Br)ccc1Br)c1ccc2cccnc2c1O	10.1 µM
O=C(Nc1ccccc1Cl)c1ccc2cccnc2c1O	9.4 µM
Cc1cc(Cl)ccc1NC(=O)c1ccc2cccnc2c1O	3.6 µM
O=C(Nc1cc(C(F)(F)F)ccc1Cl)c1ccc2cccnc2c1O [drawing 221]	14 µM
O=C(Nc1cccc(Br)c1)c1ccc2cccnc2c1O	9.2 µM
Cc1cc(C)cc(NC(=O)c2ccc3cccnc3c2O)c1	19.2 µM
O=C(Nc1cccc(Cl)c1)c1ccc2cccnc2c1O	1.7 µM
O=C(Nc1cc(Cl)ccc1O)c1ccc2cccnc2c1O	13.8 µM
O=C(Nc1ccccc1Br)c1ccc2cccnc2c1O	16 µM
O=C(Nc1cc([N+](=O)[O-])cc([N+](=O)[O-])c1)c1ccc2cccnc2c1O	7.1 µM
O=C(Nc1cccc2ccccc12)c1ccc2cccnc2c1O	4.9 µM
O=C(Nc1cccc(OCc2ccccc2)c1)c1ccc2cccnc2c1O	2.9 µM
Cc1ccccc1NC(=O)c1ccc2cccnc2c1O	13.4 µM
O=C(Nc1ccc(F)cc1F)c1ccc2cccnc2c1O	26.8 µM
O=C(Nc1ccc(Cl)c(Cl)c1)c1ccc2cccnc2c1O	32.7 µM
Cc1ccc(Cl)c(NC(=O)c2ccc3cccnc3c2O)c1	7.5 µM
Cc1ccc(NC(=O)c2ccc3cccnc3c2O)c(C)c1 [drawing 223]	22.4 µM
O=C(Nc1ccc(CO)cc1)c1ccc2cccnc2c1O	3.7 µM
O=C(Nc1ccc(F)c(F)c1)c1ccc2cccnc2c1O	82.9 µM
CCc1ccccc1NC(=O)c1ccc2cccnc2c1O	7.3 µM
COc1ccc(NC(=O)c2ccc3cccnc3c2O)cc1	30.1 µM

same assay, conditions: Table 11; read-out: CMV pol Assay IC50

Compound	IC50
CCCCNc1nnc(NC(=O)c2ccc3cccnc3c2O)s1	2.5 µM
CC(C)(C)OC(=O)[C@@H]1CCCN1c1nnc(NC(=O)c2ccc3cccnc3c2O)s1	13.9 µM
CC(C)(C)OC(=O)[C@H](Cc1ccc(OC(C)(C)C)cc1)Nc1nnc(NC(=O)c2ccc3cccnc3c2O)s1	4.5 µM
CC(C)(C)OC(=O)[C@H](Cc1c[nH]c2ccccc12)Nc1nnc(NC(=O)c2ccc3cccnc3c2O)s1	< 3.1 µM
CC(C)(C)OC(=O)C(Nc1nnc(NC(=O)c2ccc3cccnc3c2O)s1)c1ccc2c(c1)OCO2 (stereo not shown)	4.3 µM
N#CC(Nc1nnc(NC(=O)c2ccc3cccnc3c2O)s1)c1ccc2c(c1)OCO2 (stereo not shown)	3.1 µM
CC(C)(C)OC(=O)[C@H](CCCCNC(=O)OCc1ccccc1)Nc1nnc(NC(=O)c2ccc3cccnc3c2O)s1	< 3.1 µM
O=C(Nc1nnc(Br)s1)c1ccc2cccnc2c1O [drawing 304]	93.2 µM
O=C(Nc1nnc(NC(C(=O)O)c2cccc3c2OCO3)s1)c1ccc2cccnc2c1O (stereo not shown)	18.9 µM
O=C(Nc1nnc(NCCc2ccccc2)s1)c1ccc2cccnc2c1O	2.4 µM
CC(C)(C)OC(=O)C(Nc1nnc(NC(=O)c2ccc3cccnc3c2O)s1)c1cccc2c1OCO2 (stereo not shown)	4.7 µM
CC(C)(C)OC(=O)C[C@H](Nc1nnc(NC(=O)c2ccc3cccnc3c2O)s1)C(=O)OC(C)(C)C	24.2 µM
COC(=O)[C@@H](Cc1ccccc1)Nc1nnc(NC(=O)c2ccc3cccnc3c2O)s1	9.4 µM

same assay, conditions: Table 13; read-out: IC50

Compound	IC50
Cc1ccc2ccc(C(=O)Nc3ccc(Cl)cc3)c(O)c2n1	7.6 µM

same assay, conditions: Table 14; 25 uM

Compound	inhibition at 25 µM
O=C(NC(CO)c1ccccc1)c1ccc2cccnc2c1O (stereo not shown)	39%
O=C(NCCc1ccc(F)cc1)c1ccc2cccnc2c1O	42%
O=C(NCCc1ccccc1F)c1ccc2cccnc2c1O	39%
O=C(N[C@H]1CC[C@H](O)CC1)c1ccc2cccnc2c1O	21%

same assay, conditions: Table 14; read-out: IC50

Compound	IC50
O=C(N[C@H]1CC[C@H](OC(=O)c2ccc3cccnc3c2O)CC1)c1ccc2cccnc2c1O	4 µM
O=C(c1ccc2cccnc2c1O)N1CCN(c2ccc(Cl)c(Cl)c2)CC1	14 µM
O=C(NCc1ccc(F)c(F)c1)c1ccc2cccnc2c1O	42 µM
O=C(NCc1c(F)cccc1Cl)c1ccc2cccnc2c1O	30 µM
O=C(NCc1ccc(F)cc1Cl)c1ccc2cccnc2c1O	28 µM
CCOC(=O)C(Cc1ccccc1)NC(=O)c1ccc2cccnc2c1O (stereo not shown)	41 µM
O=C(NCCc1ccccc1Cl)c1ccc2cccnc2c1O	26 µM

same assay, conditions: pol type CMV; Table 1; read-out: CMV pol Assay IC50

Compound	IC50
O=C(NC1=NC(=O)C(c2ccc(Cl)cc2)S1)c1cc(Br)c2cccnc2c1O (stereo not shown) [Example 6, 5-Bromo-N-[5-(4-chlorophenyl)-4,5-dihydro-4-oxo-2-thiazolyl]-8-hydroxy-7-quinolinecarboxamide]	4.1 µM

same assay, conditions: pol type CMV; Table 2; read-out: IC50

Compound	IC50
Cc1ccc2c(Cl)cc(S(=O)(=O)NCc3cccc4ccccc34)c(O)c2n1 [Example 31, 5-Chloro-8-hydroxy-2-methyl-N-(1-naphthalenylmethyl)-7-quinolinesulfonamide]	< 3.1 µM and 3.7 µM
